Results as given in patent US8435978B2, “Substituted sulfonamide compounds” (Gruenenthal GmbH, priority 2006, dated 2013).
Where a name gives a salt, the structure may show the parent alone.

What was measured:
human B1R receptor = biological target: T1, human B1R receptor (Homo sapiens, UniProt P46663); assay: Functional study on the bradykinin receptor 1 (B1R), FLIPR Ca2+ assay, hB1R cells; type: cell-based; conditions: agonist Lys-Des-Arg9-bradykinin 0.5 nM, % inhibition compared with the maximum achievable inhibition; for inhibition at 10 µM: CHO-K1, test substance 10 μM, read-out: B1R Antagonism, human [10 μM] % Inhibition; for B1R Antagonism, human [10 μM] % Inhibition: test substance 10 μM, hB1R CHO K1 cells
T1 construct: host or cells: CHO K1 cells (Chinese hamster ovary), stably transfected
T1 sequence (P46663 1-353): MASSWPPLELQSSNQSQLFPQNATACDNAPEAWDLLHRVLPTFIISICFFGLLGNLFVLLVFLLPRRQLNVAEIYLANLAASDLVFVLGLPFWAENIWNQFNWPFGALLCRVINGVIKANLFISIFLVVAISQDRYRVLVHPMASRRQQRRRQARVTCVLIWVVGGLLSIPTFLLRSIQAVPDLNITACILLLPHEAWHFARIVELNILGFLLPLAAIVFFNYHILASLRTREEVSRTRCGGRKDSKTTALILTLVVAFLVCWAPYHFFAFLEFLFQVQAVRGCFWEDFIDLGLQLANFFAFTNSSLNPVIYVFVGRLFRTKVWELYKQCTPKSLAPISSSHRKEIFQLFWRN
Summary of the method: (§1)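 FLIPR Ca2+ assay in recombinant CHO K1 cells (human or rat B1R), Fluo-4 dye; 10 μM compound, 10 min, then EC-level agonist per species (0.5 nM Lys-Des-Arg9-BK human / 100 nM Des-Arg9-BK rat). Output: % inhibition vs maximum.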

B1R receptor of the rat = biological target: T2, B1R receptor of the rat (Rattus norvegicus, UniProt P97583); assay: Functional study on the bradykinin receptor 1 (B1R), FLIPR Ca2+ assay, rB1R cells; type: cell-based; conditions: agonist Des-Arg9-bradykinin 100 nM, % inhibition compared with the maximum achievable inhibition; for inhibition at 10 µM: CHO-K1, test substance 10 μM, read-out: B1R Antagonism, rat [10 μM] % Inhibition; for B1R Antagonism, rat [10 μM] % Inhibition: test substance 10 μM, rB1R CHO K1 cells
T2 construct: host or cells: CHO K1 cells (Chinese hamster ovary), stably transfected
T2 sequence (P97583 1-337): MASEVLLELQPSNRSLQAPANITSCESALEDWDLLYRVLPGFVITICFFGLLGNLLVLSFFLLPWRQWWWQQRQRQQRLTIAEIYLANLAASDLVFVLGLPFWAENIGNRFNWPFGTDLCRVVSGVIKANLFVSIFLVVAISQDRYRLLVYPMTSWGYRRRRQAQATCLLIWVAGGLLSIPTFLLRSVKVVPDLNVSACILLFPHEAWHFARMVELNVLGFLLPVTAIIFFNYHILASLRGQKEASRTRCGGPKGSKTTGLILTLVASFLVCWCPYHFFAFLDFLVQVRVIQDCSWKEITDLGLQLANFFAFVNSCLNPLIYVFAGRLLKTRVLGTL
Summary of the method: as §1

| inhibition at 10 µM (human B1R receptor) [%] | inhibition at 10 µM (B1R receptor of the rat) [%] | B1R Antagonism, human [10 μM] % Inhibition (human B1R receptor) [%] | B1R Antagonism, rat [10 μM] % Inhibition (B1R receptor of the rat) [%] | Molecule |
| --- | --- | --- | --- | --- |
| 96.8 | 90.5 |  |  | COc1cc(C)c(S(=O)(=O)N2CCCCC2COCC(=O)NCCCCCN(C)C)c(C)c1 (stereo not drawn) [Example 250, N-(5-(dimethylamino)pentyl)-2-((1-(4-methoxy-2,6-dimethylphenylsulfonyl)piperidin-2-yl)methoxy)acetamide] |
| 96.6 | 101 |  |  | COc1cc(C)c(S(=O)(=O)N2CCCC2COCC(=O)N2CCN(Cc3ccccc3)CC2)c(C)c1 (stereo not drawn) [Example 460, 1-(4-benzylpiperazin-1-yl)-2-((1-(4-methoxy-2,6-dimethylphenylsulfonyl)pyrrolidin-2-yl)methoxy)ethanone] |
| 104 | 92.9 |  |  | COc1ccc(N2CCN(C(=O)COCC3CCCCN3S(=O)(=O)c3c(C)cc(OC)cc3C)CC2)cc1 (stereo not drawn) [Example 290, 2-((1-(4-methoxy-2,6-dimethylphenylsulfonyl)piperidin-2-yl)methoxy)-1-(4-(4-methoxyphenyl)piperazin-1-yl)ethanone] |
| 72.6 | 16.4 |  |  | Cc1cc(C)c(S(=O)(=O)N2Cc3ccccc3CC2COCC(=O)NCC2CCCN(Cc3ccccc3)C2)c(C)c1 (stereo not drawn) [Example 41, N-(1-benzyl-piperidin-3-ylmethyl)-2-[2-(2,4,6-trimethyl-phenylsulfonyl)-1,2,3,4-tetrahydro-isoquinolin-3-ylmethoxy]-acetamide] |
| 101 | 101 |  |  | CN1CCC(N2CCN(C(=O)COCC3CCCCN3S(=O)(=O)c3cccc(Cl)c3Cl)CC2)CC1 (stereo not drawn) [Example 173, 2-((1-(2,3-dichlorophenylsulfonyl)piperidin-2-yl)methoxy)-1-(4-(1-methylpiperidin-4-yl)piperazin-1-yl)ethanone dihydrochloride] |
| 70.2 | 97.3 |  |  | COc1cc(C)c(S(=O)(=O)N2CCCCC2COCC(=O)Nc2cc(C)nc3ccccc23)c(C)c1 (stereo not drawn) [Example 244, 2-((1-(4-methoxy-2,6-dimethylphenylsulfonyl)piperidin-2-yl)methoxy)-N-(2-methylquinolin-4-yl)acetamide] |
| 104 | 100 |  |  | COc1cc(C)c(S(=O)(=O)N2CCCCC2COCC(=O)N2CCN(Cc3nc(-c4ccccc4)[nH]c3Cl)CC2)c(C)c1 (stereo not drawn) [Example 197, 1-(4-((5-chloro-2-phenyl-1H-imidazol-4-yl)methyl)piperazin-1-yl)-2-((1-(4-methoxy-2,6-dimethylphenylsulfonyl)piperidin-2-yl)methoxy)ethanone] |
| 55.6 | 99.8 |  |  | COc1cc(C)c(S(=O)(=O)N2CCCCC2COCC(=O)NC2CCN(Cc3ccccc3)C2)c(C)c1 (stereo not drawn) [Example 365, N-(1-benzylpyrrolidin-3-yl)-2-((1-(4-methoxy-2,6-dimethylphenylsulfonyl)piperidin-2-yl)methoxy)acetamide] |
| 92.6 | 92.2 |  |  | O=C(COCC1CCCN1S(=O)(=O)c1c(Cl)cc(Cl)cc1Cl)NCCN1CCCCC1 (stereo not drawn) [Example 338, N-(2-(piperidin-1-yl)ethyl)-2-((1-(2,4,6-trichlorophenylsulfonyl)pyrrolidin-2-yl)methoxy)acetamide] |
| 50.4 | 103 |  |  | O=C(COCC1CCCCN1S(=O)(=O)c1c(Cl)cc(Cl)cc1Cl)NCc1ccc(N2CCCCC2)cc1 (stereo not drawn) [Example 74, N-(4-piperidin-1-yl-benzyl)-2-[1-(2,4,6-trichloro-phenylsulfonyl)-piperidin-2-yl-methoxy]-acetamide] |
| 52 | 103 |  |  | Cc1cc(C)c(S(=O)(=O)N2CCCCC2COCC(=O)N2CCN(c3nc(Cc4ccccc4)cs3)CC2)c(C)c1 (stereo not drawn) [Example 234, 1-(4-(4-benzylthiazol-2-yl)piperazin-1-yl)-2-((1-(mesitylsulfonyl)piperidin-2-yl)methoxy)ethanone] |
| 104 | 107 |  |  | COc1cc(C)c(S(=O)(=O)N2CCCCC2COCC(=O)N2CCCCC2CCN2CCOCC2)c(C)c1 (stereo not drawn) [Example 534, 2-((1-(4-methoxy-2,6-dimethylphenylsulfonyl)piperidin-2-yl)methoxy)-1-(2-(2-morpholinoethyl)piperidin-1-yl)ethanone] |
| 102 | 102 |  |  | COc1cc(C)c(S(=O)(=O)N2CCC[C@H]2COCC(=O)N2CCC(CCN3CCCC3)CC2)c(C)c1 [Example 190, (S)-2-((1-(4-methoxy-2,6-dimethylphenylsulfonyl)pyrrolidin-2-yl)methoxy)-1-(4-(2-(pyrrolidin-1-yl)ethyl)piperidin-1-yl)ethanone hydrochloride] |
| 88.6 | 99.8 |  |  | CCc1ccc(CC2CCCCN2C(=O)COCC2CCCCN2S(=O)(=O)c2c(C)cc(C)cc2C)nc1 (stereo not drawn) [Example 228, 1-(2-((5-ethylpyridin-2-yl)methyl)piperidin-1-yl)-2-((1-(mesitylsulfonyl)piperidin-2-yl)methoxy)ethanone] |
| 98.8 | 102 |  |  | CCN1CCN(C(=O)COCC2CCCN2S(=O)(=O)c2c(C)cc(OC)cc2C)CC1 (stereo not drawn) [Example 517, 1-(4-ethylpiperazin-1-yl)-2-((1-(4-methoxy-2,6-dimethylphenylsulfonyl)pyrrolidin-2-yl)methoxy)ethanone] |
| -11.8 | 106 |  |  | COc1cc(C)c(S(=O)(=O)N2CCCCC2COCC(=O)Nc2[nH]ncc2-c2ccc(OC)c(OC)c2)c(C)c1 (stereo not drawn) [Example 538, N-(4-(3,4-dimethoxyphenyl)-1H-pyrazol-5-yl)-2-((1-(4-methoxy-2,6-dimethylphenylsulfonyl)piperidin-2-yl)methoxy)acetamide] |
| 28.4 | 96.2 |  |  | COc1cc(C)c(S(=O)(=O)N2CCCCC2COCC(=O)Nc2ccccc2N2CCN(C)CC2)c(C)c1 (stereo not drawn) [Example 431, 2-((1-(4-methoxy-2,6-dimethylphenylsulfonyl)piperidin-2-yl)methoxy)-N-(2-(4-methylpiperazin-1-yl)phenyl)acetamide] |
|  |  | 79.9 | 39.48 | O=C(COCC1CCCCN1S(=O)(=O)c1cccc2ccccc12)NCC1CCCN(Cc2ccccc2)C1 (stereo not drawn) [Example 34, N-(1-benzyl-piperidin-3-ylmethyl)-2-[1-(naphthyl-1-sulfonyl)-piperidin-2-ylmethoxy]-acetamide] |
| 101 | 103 |  |  | CCN1CCN(CCCNC(=O)COCC2CCCCN2S(=O)(=O)c2c(C)cc(OC)cc2C)CC1 (stereo not drawn) [Example 412, N-(3-(4-ethylpiperazin-1-yl)propyl)-2-((1-(4-methoxy-2,6-dimethylphenylsulfonyl)piperidin-2-yl)methoxy)acetamide] |
| 7.44 | 104 |  |  | COc1cc(C)c(S(=O)(=O)N2CCCCC2COCC(=O)Nc2ccc3ccccc3n2)c(C)c1 (stereo not drawn) [Example 546, 2-((1-(4-methoxy-2,6-dimethylphenylsulfonyl)piperidin-2-yl)methoxy)-N-(quinolin-2-yl)acetamide] |
|  |  | 65.25 | 103.41 | 1-(4-(3-chloro-5-(trifluoromethyl)pyridin-2-yl)piperazin-1-yl)-2-((1-(2,6-dichlorophenylsulfonyl)piperidin-2-yl)methoxy)ethanone [Example 485] |
| 44.9 | 4.42 |  |  | O=C(COCC1Cc2ccccc2CN1S(=O)(=O)c1ccc(Cl)c(Cl)c1)N1CCCC1CN1CCCCC1 (stereo not drawn) [Example 82, 2-[2-(3,4-dichloro-phenylsulfonyl)-1,2,3,4-tetrahydro-isoquinolin-3-ylmethoxy]-1-(2-piperidin-1-ylmethyl-pyrrolidin-1-yl)-ethanone] |
| 93.1 | 101 |  |  | CC(C)N(Cc1ccc(N(C)C)cc1)C(=O)COCC1CCCCN1S(=O)(=O)c1c(Cl)cccc1Cl (stereo not drawn) [Example 530, 2-((1-(2,6-dichlorophenylsulfonyl)piperidin-2-yl)methoxy)-N-(4-(dimethylamino)benzyl)-N-isopropylacetamide] |
| 93.4 | 101 |  |  | COc1cc(C)c(S(=O)(=O)N2CCCCC2COCC(=O)N(CCN(C)C)Cc2ccccc2)c(C)c1 (stereo not drawn) [Example 361, N-benzyl-N-(2-(dimethylamino)ethyl)-2-((1-(4-methoxy-2,6-dimethylphenylsulfonyl)piperidin-2-yl)methoxy)acetamide] |
